From patent US11780840B2 (Incyte Corporation, priority 2020, dated 2023)
pIC50: −log10 of the molar value.

How the values were obtained:
[1] = target: T1, catalytic domain (JH1, amino acids 826-1132) of human JAK2 (Homo sapiens, UniProt O60674); assay: JAK2 LanthaScreen JH1 Binding Assay; settings: JAK2 JH1 (1.5 nM), 50 nM fluorescent JAK2-JH1 tracer, 2 hours at 25° C.; read-out: JH1 BIND
T1 construct: catalytic domain (JH1, amino acids 826-1132) of human JAK2; FLAG (N); purchased Carna Biosciences 08-445-20N; host or cells: baculovirus expression system
T1 sequence (O60674 826-1132): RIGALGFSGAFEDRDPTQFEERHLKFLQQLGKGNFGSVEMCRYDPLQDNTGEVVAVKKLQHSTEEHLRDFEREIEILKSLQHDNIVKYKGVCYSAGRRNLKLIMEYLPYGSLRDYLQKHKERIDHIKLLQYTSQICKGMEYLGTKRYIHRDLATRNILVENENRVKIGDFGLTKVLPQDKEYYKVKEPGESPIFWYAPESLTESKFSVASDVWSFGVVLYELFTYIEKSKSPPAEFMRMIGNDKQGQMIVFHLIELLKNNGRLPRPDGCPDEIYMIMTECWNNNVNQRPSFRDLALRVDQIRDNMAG
Outline: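 FLAG-tagged, biotinylated JAK2 JH1 (aa 826-1132, baculovirus-expressed; 1.5 nM) incubated 2 h at 25° C with compounds, 50 nM fluorescent tracer and 0.5 nM Streptavidin-Tb in Tris pH 7.5 buffer with MgCl2, Brij-35, BSA, EGTA, glycerol, DTT. Nonspecific binding defined with 2 mM ATP; TR-FRET IC50 from four-parameter fit.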

[2] = target: T2, pseudo-kinase domain (JH2, amino-acids 536-812 with 3 surface mutations W659A, W777A, F794H) of human Wild Type JAK2 (Homo sapiens, UniProt O60674, F794H/W659A/W777A); assay: JAK2 LanthaScreen JH2-WT Binding Assay; settings: JAK2 JH2-WT (0.145 nM), 50 nM Fluorescent JAK2-JH2 Tracer, 1 hour at 25° C.; read-out: JH2 BIND WT
T2 construct: pseudo-kinase domain (JH2, amino-acids 536-812 with 3 surface mutations W659A, W777A, F794H); His (C); Avi (biotinylated) (C); purchased BPS Bioscience 79463; host or cells: baculovirus expression system
T2 sequence (O60674 536-812 W659A/W777A/F794H): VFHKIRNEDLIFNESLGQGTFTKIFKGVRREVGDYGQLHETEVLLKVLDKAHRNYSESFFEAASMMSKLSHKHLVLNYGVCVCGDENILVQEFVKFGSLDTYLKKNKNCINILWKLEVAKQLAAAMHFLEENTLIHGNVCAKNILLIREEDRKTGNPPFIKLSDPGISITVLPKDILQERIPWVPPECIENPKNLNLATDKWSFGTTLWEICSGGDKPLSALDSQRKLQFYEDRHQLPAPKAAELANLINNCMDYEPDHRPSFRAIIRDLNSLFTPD
Outline: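 Compounds, serially diluted, were mixed with 0.145 nM JH2 domain, 50 nM tracer and 0.25 nM streptavidin-Tb cryptate, then incubated 1 hour at 25° C before LanthaScreen reading. Wells containing 2 mM ATP defined non-specific binding. Four-parameter dose-response curves gave IC50.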

[3] = target: T3, pseudo-kinase domain (JH2, amino-acids 536-812 with 3 surface mutations W659A, W777A, F794H) of human V617F mutant JAK2 (Homo sapiens, UniProt O60674, F794H/V617F/W659A/W777A); assay: JAK2 LanthaScreen JH2-V617F Binding Assay; settings: JAK2 JH2-V617F (0.26 nM), 50 nM Fluorescent JAK2-JH2 Tracer, 1 hour at 25° C.; read-out: JH2 BIND V617F
T3 construct: pseudo-kinase domain (JH2, amino-acids 536-812 with 3 surface mutations W659A, W777A, F794H); His (C); Avi (biotinylated) (C); purchased BPS Bioscience 79498; host or cells: baculovirus expression system
T3 sequence (O60674 536-812 V617F/W659A/W777A/F794H): as the sequence (O60674 536-812 W659A/W777A/F794H) above, with V82F counted along it
Outline: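 Competition of compounds with a fluorescent tracer (50 nM) for the biotinylated domain (0.26 nM), detected via streptavidin-Tb (0.25 nM) after 1 h at 25° C in pH 7.5 Tris buffer containing glycerol, BSA and Brij-35. ATP at 2 mM gave background. IC50 by four-parameter fit.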

Cn1ncc2cc(-c3c(-c4ccc(Oc5cccnc5)nc4)[nH]c4ncc5c(c34)n(C3CCCC3)c(=O)n5C)ccc21 [Example 67, 1-Cyclopentyl-3-methyl-8-(1-methyl-1H-indazol-5-yl)-7-(6-(pyridin-3-yloxy)pyridin-3-yl)-3,6-dihydroimidazo[4,5-d]pyrrolo[2,3-b]pyridin-2(1H)-one]
pIC50 [1]: < 6.00 | pIC50 [2]: 7.00 to 8.00 | pIC50 [3]: 7.00 to 8.00

Cn1ncc2cc(-c3c(C4CC4)[nH]c4ncc5c(c34)n(C3CCCC3)c(=O)n5C)ccc21 [Example 68, 1-Cyclopentyl-7-cyclopropyl-3-methyl-8-(1-methyl-1H-indazol-5-yl)-3,6-dihydroimidazo[4,5-d]pyrrolo[2,3-b]pyridin-2(1H)-one]
pIC50 [1]: 6.00 to 6.30 | pIC50 [2]: ≥ 8.00 | pIC50 [3]: ≥ 8.00

Cn1ncc2cc(-c3c(C4=CCCCC4)[nH]c4ncc5c(c34)n(C3CCCC3)c(=O)n5C)ccc21 [Example 69, 7-(Cyclohex-1-en-1-yl)-1-cyclopentyl-3-methyl-8-(1-methyl-1H-indazol-5-yl)-3,6-dihydroimidazo[4,5-d]pyrrolo[2,3-b]pyridin-2(1H)-one]
pIC50 [1]: < 6.00 | pIC50 [2]: ≥ 8.00 | pIC50 [3]: ≥ 8.00

Cn1ncc2cc(-c3c(CCO)[nH]c4ncc5c(c34)n(C3CCCC3)c(=O)n5C)ccc21 [Example 70, 1-Cyclopentyl-7-(2-hydroxyethyl)-3-methyl-8-(1-methyl-1H-indazol-5-yl)-3,6-dihydroimidazo[4,5-d]pyrrolo[2,3-b]pyridin-2(1H)-one]
pIC50 [1]: < 6.00 | pIC50 [2]: 6.30 to 7.00 | pIC50 [3]: 6.30 to 7.00

Cn1c(=O)n(C2CCCC2)c2c3c(-c4cc5cnccc5s4)c(C4CC4)[nH]c3ncc21 [Example 71, 1-Cyclopentyl-7-cyclopropyl-3-methyl-8-(thieno[3,2-c]pyridin-2-yl)-3,6-dihydroimidazo[4,5-d]pyrrolo[2,3-b]pyridin-2(1H)-one]
pIC50 [1]: 6.00 to 6.30 | pIC50 [2]: ≥ 8.00 | pIC50 [3]: 7.00 to 8.00

Cn1ncc2cc(-c3c(C4CC4C#N)[nH]c4ncc5c(c34)n(C3CCCC3)c(=O)n5C)ccc21 (stereo not drawn) [Example 72, 2-(1-Cyclopentyl-3-methyl-8-(1-methyl-1H-indazol-5-yl)-2-oxo-1,2,3,6-tetrahydroimidazo [4,5-d]pyrrolo[2,3-b]pyridin-7-yl)cyclopropane-1-carbonitrile]
pIC50 [1]: 6.00 to 6.30 | pIC50 [2]: ≥ 8.00 | pIC50 [3]: 7.00 to 8.00

COCC(=O)NC1CCC(n2c(=O)n(C)c3cnc4[nH]c(-c5cnn(CC(C)(C)O)c5)c(-c5ccc6c(cnn6C)c5)c4c32)CC1 (stereo not drawn) [Example 73, N-(4-(7-(1-(2-Hydroxy-2-methylpropyl)-1H-pyrazol-4-yl)-3-methyl-8-(1-methyl-1H-indazol-5-yl)-2-oxo-3,6-dihydroimidazo[4,5-d]pyrrolo[2,3-b]pyridin-1(2H)-yl)cyclohexyl)-2-methoxyacetamide]
pIC50 [1]: < 6.00 | pIC50 [2]: ≥ 8.00 | pIC50 [3]: ≥ 8.00

CC(=O)NC1CCC(n2c(=O)n(C)c3cnc4[nH]c(-c5cnn(CC(C)(C)O)c5)c(-c5ccc6c(cnn6C)c5)c4c32)CC1 (stereo not drawn) [Example 74, N-(4-(7-(1-(2-Hydroxy-2-methylpropyl)-1H-pyrazol-4-yl)-3-methyl-8-(1-methyl-1H-indazol-5-yl)-2-oxo-3,6-dihydroimidazo[4,5-d]pyrrolo[2,3-b]pyridin-1(2H)-yl)cyclohexyl) acetamide]
pIC50 [1]: 6.00 to 6.30 | pIC50 [2]: ≥ 8.00 | pIC50 [3]: ≥ 8.00

CC(C)n1c(=O)n(C)c2cnc3[nH]c(-c4cnn(CC(C)(C)O)c4)c(-c4cc5cnccc5s4)c3c21 [Example 75, 7-(1-(2-Hydroxy-2-methylpropyl)-1H-pyrazol-4-yl)-1-isopropyl-3-methyl-8-(thieno[3,2-c]pyridin-2-yl)-3,6-dihydroimidazo[4,5-d]pyrrolo[2,3-b]pyridin-2(1H)-one]
pIC50 [1]: 6.00 to 6.30 | pIC50 [2]: ≥ 8.00 | pIC50 [3]: ≥ 8.00

CC(C)n1c(=O)n(C)c2cnc3[nH]c(-c4cnn(CC(C)(C)O)c4)c(-c4cnc(N5CCOCC5)s4)c3c21 [Example 76, 7-(1-(2-Hydroxy-2-methylpropyl)-1H-pyrazol-4-yl)-1-isopropyl-3-methyl-8-(2-morpholinothiazol-5-yl)-3,6-dihydroimidazo[4,5-d]pyrrolo[2,3-b]pyridin-2(1H)-one]
pIC50 [1]: < 6.00 | pIC50 [2]: 7.00 to 8.00 | pIC50 [3]: 7.00 to 8.00

CC(C)n1c(=O)n(C)c2cnc3[nH]c(-c4cnn(CC(C)(C)O)c4)c(-c4ccc5cnccc5c4)c3c21 [Example 77, 7-(1-(2-Hydroxy-2-methylpropyl)-1H-pyrazol-4-yl)-1-isopropyl-8-(isoquinolin-6-yl)-3-methyl-3,6-dihydroimidazo[4,5-d]pyrrolo[2,3-b]pyridin-2(1H)-one]
pIC50 [1]: < 6.00 | pIC50 [2]: 7.00 to 8.00 | pIC50 [3]: 7.00 to 8.00

CC(C)n1c(=O)n(C)c2cnc3[nH]c(-c4cnn(CC(C)(C)O)c4)c(-c4ccc5ncsc5c4)c3c21 [Example 78, 8-(Benzo[d]thiazol-6-yl)-7-(1-(2-hydroxy-2-methylpropyl)-1H-pyrazol-4-yl)-1-isopropyl-3-methyl-3,6-dihydroimidazo[4,5-d]pyrrolo[2,3-b]pyridin-2(1H)-one]
pIC50 [1]: < 6.00 | pIC50 [2]: 7.00 to 8.00 | pIC50 [3]: 7.00 to 8.00

CC(C)n1c(=O)n(C)c2cnc3[nH]c(-c4cnn(CC(C)(C)O)c4)c(-c4ccc5c(c4)CCCO5)c3c21 [Example 79, 8-(Chroman-6-yl)-7-(1-(2-hydroxy-2-methylpropyl)-1H-pyrazol-4-yl)-1-isopropyl-3-methyl-3,6-dihydroimidazo[4,5-d]pyrrolo[2,3-b]pyridin-2(1H)-one]
pIC50 [1]: 6.30 to 7.00 | pIC50 [2]: ≥ 8.00 | pIC50 [3]: 7.00 to 8.00

CC(C)n1c(=O)n(C)c2cnc3[nH]c(-c4cnn(CC(C)(C)O)c4)c(-c4cc5cnc(N6CCNCC6)cc5s4)c3c21 [Example 80, 7-(1-(2-Hydroxy-2-methylpropyl)-1H-pyrazol-4-yl)-1-isopropyl-3-methyl-8-(6-(piperazin-1-yl)thieno[3,2-c]pyridin-2-yl)-3,6-dihydroimidazo[4,5-d]pyrrolo[2,3-b]pyridin-2(1H)-one]
pIC50 [1]: 6.30 to 7.00 | pIC50 [2]: ≥ 8.00 | pIC50 [3]: ≥ 8.00

CC(=O)N1CCN(c2cc3sc(-c4c(-c5cnn(CC(C)(C)O)c5)[nH]c5ncc6c(c45)n(C(C)C)c(=O)n6C)cc3cn2)CC1 [Example 81, 8-(6-(4-Acetylpiperazin-1-yl)thieno[3,2-c]pyridin-2-yl)-7-(1-(2-hydroxy-2-methylpropyl)-1H-pyrazol-4-yl)-1-isopropyl-3-methyl-3,6-dihydroimidazo[4,5-d]pyrrolo[2,3-b]pyridin-2(1H)-one]
pIC50 [1]: < 6.00 | pIC50 [2]: ≥ 8.00 | pIC50 [3]: 7.00 to 8.00

CC(C)n1c(=O)n(C)c2cnc3[nH]c(-c4cnn(CC(C)(C)O)c4)c(-c4cc5c(s4)CCNC5)c3c21 [Example 82, 7-(1-(2-Hydroxy-2-methylpropyl)-1H-pyrazol-4-yl)-1-isopropyl-3-methyl-8-(4,5,6,7-tetrahydrothieno[3,2-c]pyridin-2-yl)-3,6-dihydroimidazo[4,5-d]pyrrolo[2,3-b]pyridin-2(1H)-one]
pIC50 [1]: < 6.00 | pIC50 [2]: 6.30 to 7.00 | pIC50 [3]: 6.00 to 6.30
